The source of these data is patent US20130129832A1, “COGNITIVE IMPAIRMENT AMELIORANT” (TOHOKU UNIVERSITY, priority 2008, published 2013).

Assay [1] deals with CRE-dependent transcription in cultured rat hippocampal neuronal cells. The assay is described as follows: CRE-dependent transcription reporter gene (luciferase) assay in cultured rat hippocampal neuronal cells. The assay is classed as cell-based. Conditions: 8 hours treatment with different concentrations, FIGS. 5 and 6. The protocol: (§1) FIG. 5 indicates concentration-dependent effects of nobiletin on CRE-dependent transcription in cultured rat hippocampal neuronal cells. Cells were inoculated at a density of 8×10^4 cells/48 well plate followed by holding the plate for 10 to 14 days. […] Following transfection, the cells were treated for 8 hours with different concentrations of […]. Data is shown as the mean±S.E.M. (n=6). Asterisks (*) indicate a level of significance of p<0.05 relative to a control, while double asterisks (**) indicate a level of significance of p<0.001 relative to a control.
as §1, with “FIG. 6 indicates concentration-dependent” for “FIG. 5 indicates concentration-dependent”, “effects of 4-demethylated nobiletin on” for “effects of nobiletin on”
A pregnant SD rat (E18) was sacrificed by cervical dislocation under ether anesthesia. […]
Results obtained from the reporter gene assay were evaluated using one-way ANOVA (Tukey). […]

Assay [2] concerns ERK phosphorylation in PC12D cells. The experiment in a line: ERK phosphorylation in PC12D cells by western blotting (p-ERK relative to total ERK). The assay is classed as cell-based. Conditions: 15 minutes treatment, 30 μM nobiletin alone, FIG. 2. The protocol:
Therefore, the effects of royal jelly and the effects of the combined used of royal jelly and nobiletin on ERK activity in PC12D cells, which are considered to be model cells of nerve cells, were examined by western blotting using as an indicator thereof the effects of water-soluble components of “Royal Jelly FD Powder” on ERK phosphorylation.
PC12D cells (Aichi Prefectural County Research Institute) were sub-cultured using Dulbecco's Modified Eagle Medium (DMEM) comprising heat inactivated (56° C., 30 minutes) 5% horse serum (HS: Gibco), 10% fetal calf serum (FCS: CELLect), penicillin (50 units/mL) and streptomycin ([…]). […]
PC12D cells were inoculated into a 35 mm dish at 1×10^6 cells/dish, and after culturing for 24 hours in a CO2 incubator, the cells were treated with drug. […] Moreover, after subjecting to ultrasonic treatment for 5 minutes in ice water, the lysate was centrifuged for 20 minutes at 14,000 rpm followed by recovery of the supernatant and quantification of the amount of protein. […] Bands were detected using the ECL method. […]
PC12D cells were inoculated into a 3.5 cm dish at 1×10^6 cells/dish and cultured overnight followed by treating for 15 minutes with low-serum medium comprising various drugs, and lysing the cells with cell lysis solution to obtain a cell extract. The expression levels of p-ERK and total ERK in the cell extract were then analyzed. […]

For `COc1cc(-c2cc(=O)c3c(OC)c(OC)c(OC)c(OC)c3o2)ccc1O` [4-demethylated nobiletin, 2-(4-hydroxy-3-methoxyphenyl)-5,6,7,8-tetramethoxychromen-4-one], in assay [1], the “effect on CRE-dependent transcription” value is “concentration-dependently promote CRE-dependent transcription in the same manner as nobiletin”. Regarding `COc1ccc(-c2cc(=O)c3c(OC)c(OC)c(OC)c(OC)c3o2)cc1OC` [nobiletin, 5,6,7,8,3′,4′-hexamethoxyflavone], the “effect on CRE-dependent transcription” value in assay [1] is listed as “concentration-dependently promote CRE-dependent transcription”. The “effect on ERK phosphorylation” value in assay [2] is “only demonstrated weak promoting action of ERK phosphorylation when used alone”.
